Legend:
Type in all cases: cell-based
[1] = test system: MDA-MB-231 (breast cancer); experiment: Antiproliferative activity (CCK-8 cell viability), MDA-MB-231; settings: Homo sapiens, 72 h, read-out: Antiproliferative activity in cancerous cells, MDA-MB-231 (inhibition of cell growth); for inhibition at 3.3 µM: Compound concentration: 3.3 μM; for inhibition at 10 µM: Compound concentration: 10 μM; for inhibition at 30 µM: Compound concentration: 30 μM
How it was run: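 Growth inhibition of human MDA-MB-231 breast cancer cells was assessed with a Cell Counting Kit-8. Cells cultured in DMEM plus 10% FBS were seeded at 2,000-5,000 cells/well, treated after attachment, and kept 72 h at 37° C. CCK-8 solution (10 μL) was added for 4 h, and absorbance at 450 nm was compared with DMSO-treated controls.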

[2] = test system: A549 (lung adenocarcinoma); experiment: Antiproliferative activity (CCK-8 cell viability), A549; settings: Homo sapiens, 72 h, read-out: Antiproliferative activity in cancerous cells, A549 (inhibition of cell growth); for inhibition at 3.3 µM: Compound concentration: 3.3 μM; for inhibition at 10 µM: Compound concentration: 10 μM; for inhibition at 30 µM: Compound concentration: 30 μM
How it was run: (§1)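 Growth inhibition graded in bands from percent viability against DMSO vehicle, read as CCK-8 absorbance at 450 nm. Compound tested at 3.3, 10 or 30 μM for 72 h, 37 °C; media contained 10% FBS: DMEM for HepG2/SW480, MEM for HeLa, F-12K for A549.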

[3] = test system: B16F10 (malignant melanoma); experiment: Antiproliferative activity (CCK-8 cell viability), B16F10; settings: Mus musculus, 72 h, read-out: Antiproliferative activity in cancerous cells, B16F10 (inhibition of cell growth); for inhibition at 3.3 µM: B16-F10, Compound concentration: 3.3 μM; for inhibition at 10 µM: B16-F10, Compound concentration: 10 μM; for inhibition at 30 µM: B16-F10, Compound concentration: 30 μM
How it was run: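 Cell growth inhibition was measured in B16F10 malignant melanoma cells with a Cell Counting Kit-8 viability assay. Cells were maintained in DMEM plus 10% fetal bovine serum, seeded at 2,000-5,000 cells/well in 96-well plates, and treated for 72 h at 37° C. Viability was expressed relative to DMSO-treated vehicle control wells.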

[4] = test system: HeLa (cervical cancer); experiment: Antiproliferative activity (CCK-8 cell viability), HeLa; settings: Homo sapiens, 72 h, read-out: Antiproliferative activity in cancerous cells, HELA (inhibition of cell growth); for inhibition at 3.3 µM: Compound concentration: 3.3 μM; for inhibition at 10 µM: Compound concentration: 10 μM; for inhibition at 30 µM: Compound concentration: 30 μM
How it was run: as §1

[5] = test system: SW480 (colon cancer); experiment: Antiproliferative activity (CCK-8 cell viability), SW480; settings: Homo sapiens, 72 h, read-out: Antiproliferative activity in cancerous cells, SW480 (inhibition of cell growth); for inhibition at 3.3 µM: Compound concentration: 3.3 μM; for inhibition at 10 µM: Compound concentration: 10 μM; for inhibition at 30 µM: Compound concentration: 30 μM
How it was run: as §1

[6] = test system: A431 (epidermoid carcinoma); experiment: Antiproliferative activity (CCK-8 cell viability), A431; settings: Homo sapiens, 72 h, read-out: Antiproliferative activity in cancerous cells, A431 (inhibition of cell growth); for inhibition at 3.3 µM: A-431, Compound concentration: 3.3 μM; for inhibition at 10 µM: A-431, Compound concentration: 10 μM; for inhibition at 30 µM: A-431, Compound concentration: 30 μM
How it was run: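 This growth inhibition assay used A431 cells maintained in Dulbecco's modified Eagle's medium plus 10% fetal bovine serum. Cells were seeded in 96-well plates, treated with compound for 72 h at 37° C., and then given 10 μL CCK-8 solution. After a further 4 h, absorbance was read at 450 nm.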

[7] = test system: HepG2 (liver cancer); experiment: Antiproliferative activity (CCK-8 cell viability), HepG2; settings: Homo sapiens, 72 h, read-out: Antiproliferative activity in cancerous cells, HepG2 (inhibition of cell growth); for inhibition at 3.3 µM: Compound concentration: 3.3 μM; for inhibition at 10 µM: Compound concentration: 10 μM; for inhibition at 30 µM: Compound concentration: 30 μM
How it was run: as §1

Which results are given for `CC1=C(CC(=O)O)c2cc(F)ccc2/C1=C/c1ccc(CO)cc1` [E40, (E)-2-(5-Fluoro-1-(4-(hydroxymethyl)benzylidene)-2-methyl-1H-inden-3-yl)acetic acid]?
inhibition at 3.3 µM [1]: < 30%; inhibition at 10 µM [1]: ≥ 50%; inhibition at 30 µM [1]: ≥ 50%; inhibition at 3.3 µM [2]: < 30%; inhibition at 10 µM [2]: ≥ 50%; inhibition at 30 µM [2]: ≥ 50%; inhibition at 3.3 µM [3]: < 30%; inhibition at 10 µM [3]: < 30%; inhibition at 30 µM [3]: 30 to 50%; inhibition at 3.3 µM [4]: < 30%; inhibition at 10 µM [4]: < 30%; inhibition at 30 µM [4]: ≥ 50%; inhibition at 3.3 µM [5]: < 30%; inhibition at 10 µM [5]: ≥ 50%; inhibition at 30 µM [5]: ≥ 50%; inhibition at 3.3 µM [6]: < 30%; inhibition at 10 µM [6]: ≥ 50%; inhibition at 30 µM [6]: ≥ 50%; inhibition at 3.3 µM [7]: < 30%; inhibition at 10 µM [7]: < 30%; inhibition at 30 µM [7]: < 30%

Which results are given for `CC1=C(CC(=O)O)c2cc(Cl)ccc2/C1=C/c1ccc(Oc2ccc(F)cc2)cc1` [E41, (E)-2-(5-Chloro-1-(4-(4-fluorophenoxy)benzylidene)-2-methyl-1H-inden-3-yl)acetic acid]?
inhibition at 3.3 µM [1]: < 30%; inhibition at 10 µM [1]: ≥ 50%; inhibition at 30 µM [1]: ≥ 50%; inhibition at 3.3 µM [2]: < 30%; inhibition at 10 µM [2]: 30 to 50%; inhibition at 30 µM [2]: ≥ 50%; inhibition at 3.3 µM [3]: < 30%; inhibition at 10 µM [3]: ≥ 50%; inhibition at 30 µM [3]: ≥ 50%; inhibition at 3.3 µM [4]: < 30%; inhibition at 10 µM [4]: ≥ 50%; inhibition at 30 µM [4]: ≥ 50%; inhibition at 3.3 µM [5]: 30 to 50%; inhibition at 10 µM [5]: ≥ 50%; inhibition at 30 µM [5]: ≥ 50%; inhibition at 3.3 µM [6]: ≥ 50%; inhibition at 10 µM [6]: ≥ 50%; inhibition at 30 µM [6]: ≥ 50%; inhibition at 3.3 µM [7]: < 30%; inhibition at 10 µM [7]: ≥ 50%; inhibition at 30 µM [7]: ≥ 50%

Which results are given for `CC1=C(CC(=O)O)c2cc(F)ccc2/C1=C/c1ccc(Oc2ccc(Cl)cc2)cc1` [E42, (E)-2-(1-(4-(4-Chlorophenoxy)benzylidene)-5-fluoro-2-methyl-1H-inden-3-yl)acetic acid]?
inhibition at 3.3 µM [1]: < 30%; inhibition at 10 µM [1]: < 30%; inhibition at 30 µM [1]: ≥ 50%; inhibition at 3.3 µM [2]: < 30%; inhibition at 10 µM [2]: 30 to 50%; inhibition at 30 µM [2]: ≥ 50%; inhibition at 3.3 µM [3]: < 30%; inhibition at 10 µM [3]: 30 to 50%; inhibition at 30 µM [3]: ≥ 50%; inhibition at 3.3 µM [4]: 30 to 50%; inhibition at 10 µM [4]: ≥ 50%; inhibition at 30 µM [4]: ≥ 50%; inhibition at 3.3 µM [5]: 30 to 50%; inhibition at 10 µM [5]: ≥ 50%; inhibition at 30 µM [5]: ≥ 50%; inhibition at 3.3 µM [6]: ≥ 50%; inhibition at 10 µM [6]: ≥ 50%; inhibition at 30 µM [6]: ≥ 50%; inhibition at 3.3 µM [7]: < 30%; inhibition at 10 µM [7]: 30 to 50%; inhibition at 30 µM [7]: ≥ 50%
